From patent US20230138395A1, “PHARMACEUTICAL COMPOSITIONS OF A THERAPEUTIC POLYENE MACROLIDE AND METHODS OF THEIR USE” (priority 2020, published 2023)

Test: Solubility of Compound 1A in lipids, oils and acrylate monomers
Type: physicochemical
Excerpt: In General, the Constituents of a PACA Particle Contains: • Aqueous phase: Brij L35, Kolliphor HS15 and HCl to adjust pH • Oil phase: acrylate monomer (ethyl hexylcyanoacrylate, ethyl butylcyanoacrylate, 1-heptyl cyanoacrylate, and 2-phenylethyl cyanoacrylate/butyl cyanoacrylate), Miglyol, vanillin, Compound 1A.
Lipid-based particles were investigated as a vehicle for Compound 1A.

With `C[C@@H]1[C@H](O)[C@@H](C)/C=C/C=C/C=C/C=C/C=C/C=C/C=C/[C@H](O[C@@H]2O[C@H](C)[C@@H](O)[C@H](N)[C@@H]2O)C[C@@H]2O[C@](O)(C[C@@H](O)[C@H](O)CC[C@@H](O)C[C@@H](O)C[C@@H](O)CC(=O)O[C@H]1C)C[C@H](O)[C@H]2C` [Compound 1A] the solubility (in 1-heptyl cyanoacrylate and 2-phenylethyl cyanoacrylate/butyl cyanoacrylate) was “unable to dissolve”, the solubility (in the tested oils and lipids listed) was “None of the tested oils or lipids dissolved Compound 1A well” and the solubility (in trans-cinnamaldehyde) was “somewhat soluble”.
